The source of these data is patent US20100285959A1, “HERBICIDAL MIXTURES” (priority 2006, published 2010).

Data set [1] has as its system common sugarcane (SACOF). Briefly: Test 12 field trial, preemergence. Type of data set: in vivo, Saccharum officinarum. To be noted: Cpd 2 or Cpd 1 62 g a.i./ha, Diuron 2000 g a.i./ha. From the text:
(§1) In early-mid spring season, corn seeds (hybrid ‘Pioneer 3041’) were planted 5 cm deep and sugarcane nodes (variety RB-72.454) were planted 10 cm deep in separate plots in a clay soil having 2.6% organic matter and a pH of 5.6. Plots were 24 m long by 1.5 m wide with rows spaced 80 cm (corn) or 140 cm (sugarcane) apart. Corn seeds were spaced 15 cm apart and sugarcane nodes were spaced 10 cm apart within the rows. At the same time, weed seeds were broadcast over the surface of separate plots without a crop, one weed species per plot. The weed plots were rotary tilled to incorporate the weed seeds to a variety of depths. The field was managed using conventional tillage practices.

Data set [2] concerns Italian cocklebur (XANSI). Put plainly: Test 12 field trial, preemergence. It is filed as in vivo, Xanthium strumarium ssp. italicum. The following applies: Cpd 2 or Cpd 1 62 g a.i./ha, Diuron 2000 g a.i./ha.
Text: as §1

Data set [3] concerns broadleaf buttonweed (BOILF). Briefly: Test 12 field trial, preemergence. Type of data set: in vivo, Borreria latifolia. To be noted: Cpd 2 or Cpd 1 62 g a.i./ha, Diuron 2000 g a.i./ha.
Text: as §1

For data set [4], the system named is arrowleaf sida (SIDRH). Put plainly: Test 12 field trial, preemergence. It is filed as in vivo, Sida rhombifolia. To be noted: Cpd 2 or Cpd 1 62 g a.i./ha, Diuron 2000 g a.i./ha.
Text: as §1

The subject of data set [5] is sicklepod (CASOB). Briefly: Test 12 field trial, preemergence. The following applies: Cpd 2 or Cpd 1 62 g a.i./ha, Diuron 2000 g a.i./ha. It is filed as in vivo, Cassia obtusifolia.
Text: as §1

Data set [6] deals with slender amaranth (AMAVI). Put plainly: Test 12 field trial, preemergence. Type of data set: in vivo, Amaranthus viridis. The following applies: Cpd 2 or Cpd 1 62 g a.i./ha, Diuron 2000 g a.i./ha.
Text: as §1

Data set [7] deals with common purslane (POROL). Put plainly: Test 12 field trial, preemergence. It is filed as in vivo, Portulaca oleracea. The following applies: Cpd 2 or Cpd 1 62 g a.i./ha, Diuron 2000 g a.i./ha.
Text: as §1

Data set [8] deals with Ipomoea grandiflora (IPOGF). Briefly: Test 12 field trial, preemergence. To be noted: Cpd 2 or Cpd 1 62 g a.i./ha, Diuron 2000 g a.i./ha. Type of data set: in vivo.
Text: as §1

The test system of data set [9] is wild spikenard (HPYSU). Put plainly: Test 12 field trial, preemergence. To be noted: Cpd 2 or Cpd 1 62 g a.i./ha, Diuron 2000 g a.i./ha. It is filed as in vivo.
Text: as §1

The subject of data set [10] is wild poinsettia (EPHHL). Put plainly: Test 12 field trial, preemergence. Type of data set: in vivo, Euphorbia heterophylla. To be noted: Cpd 2 or Cpd 1 62 g a.i./ha, Diuron 2000 g a.i./ha.
Text: as §1

For data set [11], the system named is tropical spiderwort (COMBE). Put plainly: Test 12 field trial, preemergence. It is filed as in vivo, Commelina benghalensis. To be noted: Cpd 2 or Cpd 1 62 g a.i./ha, Diuron 2000 g a.i./ha.
Text: as §1

Data set [12] has as its system common blackjack (BIDPI). Briefly: Test 12 field trial, preemergence. Type of data set: in vivo, Bidens pilosa. To be noted: Cpd 2 or Cpd 1 62 g a.i./ha, Diuron 2000 g a.i./ha.
Text: as §1

Data set [13] concerns flint corn (ZEAMI). Put plainly: Test 12 field trial, preemergence. Type of data set: in vivo, Zea mays L. ssp. indurata. The following applies: Cpd 2 or Cpd 1 62 g a.i./ha, Diuron 2000 g a.i./ha.
Text: as §1

Data set [14] concerns Florida beggarweed (DEDTO). Put plainly: Test 12 field trial, preemergence. It is filed as in vivo, Desmodium tortuosum. The following applies: Cpd 2 or Cpd 1 62 g a.i./ha, Diuron 2000 g a.i./ha.
Text: as §1

The subject of data set [15] is velvetleaf (ABUTH). Briefly: Test 16 greenhouse, post- and preemergence. The following applies: 15 DAA.
Data set [16] deals with velvetleaf (ABUTH). Briefly: Test 18 greenhouse, post- and preemergence. To be noted: 15 DAA.
The subject of data set [17] is winter wheat (TRZAW). Put plainly: Test 27 field trial, postemergence. The following applies: in vivo. Type of data set: in vivo, Triticum aestivum. From the text: (§2) Wheat seeds (cv. ‘Custer’) were planted in late fall season in a clay loam soil. Plots were 9 m long by 1.8 m wide. The field was managed using conventional tillage practices. […] All treatments also included a surfactant. […] Results are the means of the three replicates.

The test system of data set [18] is kochia (KCHSC). Put plainly: Test 27 field trial, postemergence. Type of data set: in vivo, Kochia scoparia. The arrangement: scale not given here. The following applies: tribenuron-methyl 10 g a.i./ha.
Text: as §2

In the case of `CN(C)C(=O)Nc1ccc(Cl)c(Cl)c1` [Diuron], the “SACOF Obs” value in data set [1] (15 DAA) came to 0; in data set [1] (29 DAA), 0; in data set [1] (48 DAA) it was 0; in [1] (61 DAA) it was 5. In addition, the “XANSI Obs” value stood at 60 in [2] (15 DAA), 40 in data set [2] (29 DAA), 40 in data set [2] (48 DAA) and 40 in data set [2] (61 DAA). In addition, the “BOILF Obs” value in [3] (15 DAA) is recorded as 99; in [3] (29 DAA), 100; in data set [3] (48 DAA) it was 100; in [3] (61 DAA) it was 95. Besides, the “SIDRH Obs” value in [4] (15 DAA), in data set [4] (29 DAA), in data set [4] (48 DAA) and in [4] (61 DAA) was 100 throughout. Further, the “CASOB Obs” value in data set [5] (15 DAA) is 90; in data set [5] (29 DAA), 90; in data set [5] (48 DAA), 60; in [5] (61 DAA), 40. In addition, the “AMAVI Obs” value in data set [6] (15 DAA), in [6] (29 DAA), in data set [6] (48 DAA) and in data set [6] (61 DAA) was 100 each time. In addition, the “POROL Obs” value in data set [7] (15 DAA), in data set [7] (29 DAA), in data set [7] (48 DAA) and in [7] (61 DAA) was 100 throughout. The “IPOGF Obs” value is on record as 80 in [8] (15 DAA), 80 in data set [8] (29 DAA), 40 in data set [8] (48 DAA) and 40 in data set [8] (61 DAA). Also, the “HPYSU Obs” value worked out at 75 in [9] (15 DAA), 60 in [9] (29 DAA), 40 in data set [9] (48 DAA) and 20 in data set [9] (61 DAA). Also, the “EPHHL Obs” value stood at 60 in [10] (15 DAA), 40 in data set [10] (29 DAA), 20 in data set [10] (48 DAA) and 40 in data set [10] (61 DAA). Also, the “COMBE Obs” value stood at 99 in data set [11] (15 DAA), 100 in [11] (29 DAA), 100 in [11] (48 DAA) and 100 in [11] (61 DAA). In addition, the “BIDPI Obs” value in [12] (15 DAA), in data set [12] (29 DAA), in data set [12] (48 DAA) and in [12] (61 DAA) was 100 in each case. The ZEAMI Obs in data set [13] (15 DAA) turned out to be 20%; in data set [13] (29 DAA), 20%; in data set [13] (48 DAA), 20%; in data set [13] (61 DAA), 25%. For the same molecule, the “DEDTO Obs” value is 100 in data set [14] (15 DAA), 100 in [14] (29 DAA), 100 in data set [14] (48 DAA) and 95 in data set [14] (61 DAA).

`C#CCN1C(=O)COc2cc(F)c(N3C(=O)C4=C(CCCC4)C3=O)cc21` [Flumioxazin]: the “Obs response, scale 0 to 100” value is recorded as 36 in data set [15] (Postemergence, 7.5 g a.i./ha); 47 in data set [15] (Postemergence, 15 g a.i./ha); 52 in [15] (Postemergence, 30 g a.i./ha); 69 in data set [15] (Postemergence, 45 g a.i./ha); 58 in data set [15] (Preemergence, 7.5 g a.i./ha); 65 in data set [15] (Preemergence, 15 g a.i./ha). Moreover, the “Obs response, scale 0 to 100” value in data set [15] (Preemergence, 30 g a.i./ha) worked out at 93; in [15] (Preemergence, 45 g a.i./ha), 100.

On to `Cc1nn(-c2cc(NS(C)(=O)=O)c(Cl)cc2Cl)c(=O)n1C(F)F` [Sulfentrazone], for which the “Postemergence ABUTH Obs” value in data set [16] (alone at 7.5 g a.i./ha) worked out at 10; in [16] (alone at 15 g a.i./ha), 19; in data set [16] (alone at 30 g a.i./ha), 44. Besides, the “Preemergence ABUTH Obs” value in data set [16] (alone at 7.5 g a.i./ha) is given as 0; in [16] (alone at 15 g a.i./ha), 3; in [16] (alone at 30 g a.i./ha), 28.

As for `COC(=O)c1ccccc1S(=O)(=O)NC(=O)N(C)c1nc(C)nc(OC)n1` [Tribenuron-methyl], the “TRZAW Obs” value in [17] (cv. Custer, Triticum aestivum (winter wheat), 16 days after application) was found to be 0; in data set [17] (cv. Custer, Triticum aestivum (winter wheat), 28 days after application) it was 0; in data set [17] it was 0. In addition, the “KCHSC Obs” value in [18] (16 DAA) is 22; in data set [18] (28 DAA), 23; in data set [18] (49 DAA), 22.
